A word on the IC50: it is the midpoint of a concentration-inhibition curve.

Like-named read-outs stand apart in the source and are kept apart here.

The subject of one data set is Molt-4 T-cell Leukemia. The experiment in a line: Cytotoxicity (growth inhibition), Molt-4. As to conditions: for cytotoxicity (log.): molt-4 cells. The text has this:
(§1) The value of the ratio Ti/Pt represents the relative activity of TPE as compared with that of cis-platinum.
(§2) The excipient can serve as an agent for promoting absorption of the medicament by the body or as formulation auxiliary, sweetener, flavouring agent, colourant or preservative. […] The novel titanocene derivatives, according to the present invention, can be prepared from common chemical reagents using standard equipment. It should be realized, that the Examples for their preparations presented hereinafter are only for illustration and many other routes may be conceived for their syntheses.

Data set [1] has as its system Ovcar-3 Ovarian Carcinoma. The experiment in a line: Cytotoxicity (growth inhibition), Ovcar-3.
From the text: as §1, §2

A further data set has as its system HL-60 B-cell Leukemia. In words: Cytotoxicity (growth inhibition), HL-60.
From the text: as §1, §2

The test system of data set [2] is NHEK Normal Keratino Epithelial. In words: Cytotoxicity (growth inhibition), NHEK.
From the text: as §1, §2

For a further data set, the system named is HT-29 Colon Carcinoma. In words: Cytotoxicity (growth inhibition), HT-29.
From the text: as §1, §2

A further data set deals with NHDF Normal Human Skin. The experiment in a line: Cytotoxicity (growth inhibition), NHDF.
From the text: as §1, §2

In a further data set the test system is UCLA-P3 Lung Carcinoma. The experiment in a line: Cytotoxicity (growth inhibition), UCLA-P3.
From the text: as §1, §2

The subject of a further data set is H-322 Lung Carcinoma. In words: Cytotoxicity (growth inhibition), H-322.
From the text: as §1, §2

Data set [3] deals with CHO Chinese Hamstead Ovary. In words: Cytotoxicity (growth inhibition), CHO.
From the text: as §1, §2

The test system of another data set is P-388 Mouse Leukemia. In words: Cytotoxicity (growth inhibition), P-388.
From the text: as §1, §2

For the next data set, the system named is SK-Mel-28 Melanoma. In words: Cytotoxicity (growth inhibition), SK-Mel-28.
From the text: as §1, §2

Data set [4] has as its system Capan 1 Pancreas Carcinoma. The experiment in a line: Cytotoxicity (growth inhibition), Capan 1.
From the text: as §1, §2

In the next data set the test system is MCF-7 Breast Cancer. In words: Cytotoxicity (growth inhibition), MCF-7.
From the text: as §1, §2

In data set [5] the test system is HMEC Normal Human Mammary. The experiment in a line: Cytotoxicity (growth inhibition), HMEC.
From the text: as §1, §2

Another data set deals with tumor. The following applies: prior art; cited from earlier work.

`COCCOCCOC(=O)c1ccc([O-])cc1.COCCOCCOC(=O)c1ccc([O-])cc1.[Ti+4].c1cc[cH-]c1.c1cc[cH-]c1` [TEG, Bis[4-(2-(2-methoxyethoxy)ethoxy]carbonylphenolato]bis(n^5-cyclopentadienyl)titanium(IV)]: the “cytotoxicity (log.)” value (with Molt-4 T-cell Leukemia; in data set [1] (ovcar-3 cells)) was -4.00 log. (M) throughout.
Turning to `CCOC(=O)c1ccc([O-])cc1.CCOC(=O)c1ccc([O-])cc1.[Ti+4].c1cc[cH-]c1.c1cc[cH-]c1` [TEE-1, Bis(4-ethoxycarbonylphenolato)bis(n^5-cyclopentadienyl)titanium(IV)], the “cytotoxicity (log.)” value with HL-60 B-cell Leukemia (hl-60 cells) was -5.51 log. (M); in [2] (human, nhek cells), -5.80 log. (M); with Molt-4 T-cell Leukemia, -7.00 log. (M); with HT-29 Colon Carcinoma (ht-29 cells) it was -5.20 log. (M); with NHDF Normal Human Skin (human, nhdf cells), -4.89 log. (M); in the data set on UCLA-P3 Lung Carcinoma (ucla-p3 cells), -5.20 log. (M). For the same compound, the “cytotoxicity (log.)” value is on record as -5.80 log. (M) with H-322 Lung Carcinoma (h-322 cells); -4.60 log. (M) in data set [3] (cho cells); -4.89 log. (M) with P-388 Mouse Leukemia (p-388 cells); -5.51 log. (M) with SK-Mel-28 Melanoma (sk-mel-28 cells); -5.51 log. (M) in [4] (capan 1 cells); -5.80 log. (M) in the data set with MCF-7 Breast Cancer (mcf-7 cells). In addition, the “cytotoxicity (log.)” value in [5] (human, hmec cells) is -6.11 log. (M); in data set [1] (ovcar-3 cells) it was -5.20 log. (M).
For the compound `C[N+](C)(C)CCOC(=O)c1ccc([O-])cc1.C[N+](C)(C)CCOC(=O)c1ccc([O-])cc1.[Ti+4].c1cc[cH-]c1.c1cc[cH-]c1` [TCE, Bis[4-(2-trimethylammono)ethoxycarbonylphenolato]bis(n^5-cyclopentadienyl)titanium(IV)], the “cytotoxicity (log.)” value in the data set on Molt-4 T-cell Leukemia is on record as -4.00 log. (M); in the data set with HT-29 Colon Carcinoma (ht-29 cells) it was -4.00 log. (M); in the data set on H-322 Lung Carcinoma (h-322 cells), -4.00 log. (M); in data set [4] (capan 1 cells), -4.00 log. (M); in the data set on MCF-7 Breast Cancer (mcf-7 cells) it was -4.30 log. (M); in data set [1] (ovcar-3 cells) it was -4.00 log. (M).
For the compound “titanocene dichloride [TDC, reference compound]”, the IC50 with HL-60 B-cell Leukemia (read-out: IC50 (cytotoxic data), HL-60) is 1000 µM; in the data set on Molt-4 T-cell Leukemia (read-out: IC50 (cytotoxic data), Molt-4) it was 1000 µM; in the data set with HT-29 Colon Carcinoma (read-out: IC50 (cytotoxic data), HT-29), 500 µM; in the data set on UCLA-P3 Lung Carcinoma (read-out: IC50 (cytotoxic data), UCLA-P3) it was 1000 µM; in the data set with H-322 Lung Carcinoma (read-out: IC50 (cytotoxic data), H-322), 1000 µM; in [3] (read-out: IC50 (cytotoxic data), CHO) it was 1000 µM. Further, the IC50 stood at 500 µM in the data set on P-388 Mouse Leukemia (read-out: IC50 (cytotoxic data), P-388); 1000 µM in the data set on SK-Mel-28 Melanoma (read-out: IC50 (cytotoxic data), SK-Mel-28); 500 µM in data set [4] (read-out: IC50 (cytotoxic data), Capan 1); 1000 µM with MCF-7 Breast Cancer (read-out: IC50 (cytotoxic data), MCF-7); 1000 µM in [1] (read-out: IC50 (cytotoxic data), Ovcar-3). For the same compound, the CC50 in data set [2] (read-out: IC50 (cytotoxic data), NHEK) worked out at 1000 µM; in the data set with NHDF Normal Human Skin (read-out: IC50 (cytotoxic data), NHDF), 1000 µM; in data set [5] (read-out: IC50 (cytotoxic data), HMEC), 130 µM. Also, in the data set on tumor, the anti-tumor activity entry is on record as “very reactive anti-tumor reagent”.
As for `COCCOC(=O)c1ccc([O-])cc1.COCCOC(=O)c1ccc([O-])cc1.[Ti+4].c1cc[cH-]c1.c1cc[cH-]c1` [TMEM, Bis[4-(2-methoxy)ethoxycarbonylphenolato]bis(n^5-cyclopentadienyl)titanium(IV)], the “cytotoxicity (log.)” value is on record as -4.60 log. (M) in the data set on HL-60 B-cell Leukemia (hl-60 cells); -7.00 log. (M) with Molt-4 T-cell Leukemia; -4.60 log. (M) with HT-29 Colon Carcinoma (ht-29 cells); -4.30 log. (M) with NHDF Normal Human Skin (human, nhdf cells); -4.89 log. (M) in the data set with H-322 Lung Carcinoma (h-322 cells); -4.30 log. (M) in data set [3] (cho cells). The “cytotoxicity (log.)” value with SK-Mel-28 Melanoma (sk-mel-28 cells) is -4.60 log. (M); in [4] (capan 1 cells) it was -4.89 log. (M); in the data set on MCF-7 Breast Cancer (mcf-7 cells), -4.89 log. (M); in data set [5] (human, hmec cells), -4.60 log. (M); in data set [1] (ovcar-3 cells) it was -4.60 log. (M).
As to `COC(=O)c1ccc([O-])cc1.COC(=O)c1ccc([O-])cc1.[Ti+4].c1cc[cH-]c1.c1cc[cH-]c1` [TPE, Bis(4-methoxycarbonylphenolato)bis(n^5-cyclopentadienyl)titanium(IV)], the “ratio Ti/Pt” value is listed as 2 in the data set on HL-60 B-cell Leukemia (HL-60, relative activity of TPE as compared with cis-platinum); 200 in [2] (NHEK, relative activity of TPE as compared with cis-platinum); 10 in the data set on Molt-4 T-cell Leukemia (Molt-4, relative activity of TPE as compared with cis-platinum); 200 in the data set with HT-29 Colon Carcinoma (HT-29, relative activity of TPE as compared with cis-platinum); 20 with NHDF Normal Human Skin (NHDF, relative activity of TPE as compared with cis-platinum); 20 with UCLA-P3 Lung Carcinoma (UCLA-P3, relative activity of TPE as compared with cis-platinum). The “ratio Ti/Pt” value with H-322 Lung Carcinoma (H-322, relative activity of TPE as compared with cis-platinum) is 100; in [3] (CHO, relative activity of TPE as compared with cis-platinum) it was 2; with SK-Mel-28 Melanoma (SK-Mel-28, relative activity of TPE as compared with cis-platinum), 10; in data set [4] (Capan 1, relative activity of TPE as compared with cis-platinum) it was 10; in the data set with MCF-7 Breast Cancer (MCF-7, relative activity of TPE as compared with cis-platinum), 100; in data set [5] (HMEC, relative activity of TPE as compared with cis-platinum), 20. Further, the “ratio Ti/Pt” value in data set [1] (Ovcar-3, relative activity of TPE as compared with cis-platinum) is reported as 10. In addition, the half-maximal inhibitory concentration (IC50) in the data set with HL-60 B-cell Leukemia (hl-60 cells) turned out to be 3.1 µM; with HT-29 Colon Carcinoma (ht-29 cells), 3.9 µM; in the data set with UCLA-P3 Lung Carcinoma (ucla-p3 cells), 3.1 µM; in the data set with H-322 Lung Carcinoma (h-322 cells), 0.63 µM; in [3] (cho cells), 13 µM; in the data set with P-388 Mouse Leukemia (p-388 cells), 3.9 µM. Also, the IC50 with SK-Mel-28 Melanoma (sk-mel-28 cells) amounted to 1.6 µM; in data set [4] (capan 1 cells), 0.39 µM; in the data set with MCF-7 Breast Cancer (mcf-7 cells) it was 2 µM; in data set [1] (ovcar-3 cells) it was 6.3 µM. Further, the “cytotoxicity (log.)” value with HL-60 B-cell Leukemia (hl-60 cells) is on record as -5.70 log. (M); in data set [2] (human, nhek cells) it was -5.51 log. (M); in the data set on Molt-4 T-cell Leukemia, -6.00 log. (M); with HT-29 Colon Carcinoma (ht-29 cells), -5.41 log. (M); in the data set with NHDF Normal Human Skin (human, nhdf cells), -5.41 log. (M); in the data set on UCLA-P3 Lung Carcinoma (ucla-p3 cells), -5.51 log. (M). Moreover, the “cytotoxicity (log.)” value is -6.20 log. (M) with H-322 Lung Carcinoma (h-322 cells); -4.80 log. (M) in data set [3] (cho cells); -5.41 log. (M) in the data set on P-388 Mouse Leukemia (p-388 cells); -5.41 log. (M) in the data set on SK-Mel-28 Melanoma (sk-mel-28 cells); -6.41 log. (M) in data set [4] (capan 1 cells); -5.70 log. (M) in the data set with MCF-7 Breast Cancer (mcf-7 cells). The “cytotoxicity (log.)” value in data set [5] (human, hmec cells) was -5.70 log. (M); in data set [1] (ovcar-3 cells), -5.20 log. (M). The CC50 in [2] (human, nhek cells) stood at 3.1 µM; in the data set with NHDF Normal Human Skin (human, nhdf cells) it was 1.6 µM; in data set [5] (human, hmec cells), 3.1 µM.

The values are drawn from patent US5496854A, “Metallocenes as anti-tumor drugs” (Technion Research & Development Foundation Ltd., priority 1992, dated 1996).
